This is an account of results in ChEMBL document CHEMBL1201862, “PubChem BioAssay data set” (2004).

Each structure is given as a SMILES string.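 Values below derive from 48-hour exposures of cells grown in 96-well plates, with endpoints linearly interpolated between the two concentrations bracketing the appropriate inhibition level. Here, GI50 denotes the concentration required for 50% inhibition of growth.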 Calls of active or inactive are those of the source. Rule as the data show it: active = GI50 up to about 1.1 µM and inactive = higher.

Some test systems named below: OVCAR-5; 786-0; SN12C; HOP-62; UACC-257; OVCAR-3; Hs-578T; OVCAR-8; SK-MEL-5; SF-539; SF-268; SK-MEL-2; K562; NCI-H226; OVCAR-4; HL-60; RXF 393; HOP-92.
Test in all cases: growth of human tumour cells (NCI), 48 h

With `CC1C(c2ccc3c(c2)OCO3)c2cc3c(cc2OC1N1CCCC1)OCO3` (stereo unspecified), the GI50 was 61.4 µM (inactive) in the experiment on OVCAR-5; 45.5 µM (inactive) in the experiment on 786-0; 39.6 µM (inactive) in the experiment on SN12C; 49.5 µM (inactive) in the experiment on HOP-62; 34.5 µM (inactive) with UACC-257; 25.8 µM (inactive) in the experiment with OVCAR-3. The GI50 in the experiment with Hs-578T is 10.6 µM (inactive); with OVCAR-8 it was 35.8 µM (inactive); in the experiment with SK-MEL-5 it was 17.7 µM (inactive); with SF-539, 16.1 µM (inactive); with SF-268, 23.1 µM (inactive); in the experiment with SK-MEL-2, 31.3 µM (inactive). For the same compound, the GI50 in the experiment on K562 is 24.4 µM (inactive).

As for `COc1ccc(C(=O)/C=C/c2ccc(OCCCOc3ccc(/C=C/C(=O)c4ccc(OC)c(OC)c4)cc3)cc2)cc1OC`, the GI50 in the experiment on NCI-H226, in the experiment with OVCAR-4, in the experiment with 786-0, in the experiment with SN12C, with HOP-62 and in the experiment on UACC-257 was > 100 µM (inactive) in each case. Further, the GI50 in the experiment with HL-60, in the experiment on Hs-578T, with OVCAR-8, with SK-MEL-5, in the experiment with SF-539 and in the experiment on SF-268 was > 100 µM (inactive) each time. Further, the GI50 in the experiment on SK-MEL-2, in the experiment on RXF 393 and in the experiment with K562 was > 100 µM (inactive) throughout.

With `COC1CC(OC)C2OC(c3ccccc3)OCC2O1` (stereo unspecified), the GI50 in the experiment on OVCAR-5, in the experiment on 786-0, with SN12C, in the experiment with HOP-62, with UACC-257 and in the experiment with OVCAR-3 was > 100 µM (inactive) in each case. Also, the GI50 in the experiment with HL-60, in the experiment on OVCAR-8, in the experiment on SK-MEL-5, in the experiment with SF-539, in the experiment on SK-MEL-2 and in the experiment on RXF 393 was > 100 µM (inactive) each time. For the same compound, the GI50 in the experiment on K562 was > 100 µM (inactive).

For `CC(C)(C)C(=O)Cc1cc2c(cc1C(=O)O)S(=O)(=O)NC(C(C)(C)C)=C2`, the GI50 with OVCAR-5, in the experiment with NCI-H226, in the experiment on OVCAR-4, with 786-0, in the experiment on SN12C and with HOP-62 was > 100 µM (inactive) throughout. Moreover, the GI50 in the experiment with UACC-257, in the experiment with OVCAR-3, with HL-60, in the experiment with OVCAR-8, in the experiment with SF-268 and in the experiment with SK-MEL-2 was > 100 µM (inactive) each time. For the same compound, the GI50 in the experiment with K562 and in the experiment on HOP-92 was > 100 µM (inactive) each time.

Take `C=C(C)[C@@]1(O)CCCC[C@@H]1CC(Sc1ccccc1)Sc1ccccc1`: the GI50 is 16.3 µM (inactive) with OVCAR-5; 16.3 µM (inactive) with NCI-H226; 13.6 µM (inactive) with OVCAR-4; 17.8 µM (inactive) in the experiment on 786-0; 16.4 µM (inactive) with SN12C; 16.5 µM (inactive) in the experiment on HOP-62. Moreover, the GI50 is 20.2 µM (inactive) in the experiment with UACC-257; 15.2 µM (inactive) with HL-60; 15.7 µM (inactive) in the experiment on Hs-578T; 19.5 µM (inactive) in the experiment on OVCAR-8; 15.7 µM (inactive) in the experiment on SK-MEL-5; 15.7 µM (inactive) with SF-268. For the same compound, the GI50 with SK-MEL-2 is 12.8 µM (inactive); in the experiment with RXF 393, 13.4 µM (inactive); with K562, 14.2 µM (inactive); in the experiment with HOP-92, 4.3 µM (inactive).

Regarding `CCOC(=O)c1[nH]c(-c2[nH]c(-c3[nH]c(-c4[nH]c(C(=O)OCC)c(C)c4C(=O)OCC)c(C(=O)OCC)c3C)c(C)c2C(=O)OCC)c(C(=O)OCC)c1C`, the GI50 in the experiment with OVCAR-5, in the experiment on NCI-H226, in the experiment with OVCAR-4, in the experiment on 786-0, in the experiment with SN12C and in the experiment with HOP-62 was > 100 µM (inactive) in each case. In addition, the GI50 was > 100 µM (inactive) in the experiment on UACC-257; > 100 µM (inactive) with OVCAR-3; > 100 µM (inactive) in the experiment with HL-60; > 100 µM (inactive) in the experiment with Hs-578T; > 100 µM (inactive) with OVCAR-8; 50.4 µM (inactive) in the experiment on SK-MEL-5. Also, the GI50 with SF-539, in the experiment with SF-268, with SK-MEL-2, in the experiment on RXF 393 and in the experiment with K562 was > 100 µM (inactive) in each case.

Take `COc1ccccc1C(N)c1ccccc1` (stereo unspecified): the GI50 with OVCAR-5, with NCI-H226, in the experiment with OVCAR-4, with 786-0, in the experiment on SN12C and in the experiment with HOP-62 was > 100 µM (inactive) in each case. Besides, the GI50 in the experiment on UACC-257, in the experiment with OVCAR-3, with HL-60, in the experiment on OVCAR-8, in the experiment on SK-MEL-5 and with SF-539 was > 100 µM (inactive) throughout. In addition, the GI50 is > 100 µM (inactive) in the experiment with SF-268, > 100 µM (inactive) with RXF 393, > 100 µM (inactive) in the experiment with K562 and 36 µM (inactive) in the experiment with HOP-92.

`O=C(O)C12C=CC(C1)c1ccccc12` (stereo unspecified): the GI50 in the experiment on OVCAR-5, in the experiment with NCI-H226, with OVCAR-4, in the experiment on 786-0, in the experiment with SN12C and in the experiment on HOP-62 was > 100 µM (inactive) throughout. Besides, the GI50 in the experiment with UACC-257, with OVCAR-3, in the experiment on HL-60, in the experiment on OVCAR-8, with SK-MEL-5 and with SF-268 was > 100 µM (inactive) throughout. Besides, the GI50 with K562 and in the experiment with HOP-92 was > 100 µM (inactive) throughout.

`O=C(CSc1nc2ccc(I)cc2c(=O)n1Cc1ccccc1)NN1C(=O)CCC1=O`: the GI50 with OVCAR-5 was > 100 µM (inactive); in the experiment with NCI-H226, 27.3 µM (inactive); in the experiment with OVCAR-4, 21.5 µM (inactive); in the experiment with 786-0, 52.7 µM (inactive); in the experiment with SN12C it was 35.7 µM (inactive); in the experiment with HOP-62, 54.5 µM (inactive). The GI50 in the experiment with UACC-257 is 45 µM (inactive); in the experiment with OVCAR-3, 23.5 µM (inactive); with HL-60, 28.6 µM (inactive); in the experiment on OVCAR-8, 37.6 µM (inactive); in the experiment on SK-MEL-5, 48.4 µM (inactive); in the experiment with SF-539 it was 61.4 µM (inactive). The GI50 is 39.1 µM (inactive) with SF-268; 47 µM (inactive) in the experiment on SK-MEL-2; 25.5 µM (inactive) in the experiment on RXF 393; 33.3 µM (inactive) with K562; 25.5 µM (inactive) with HOP-92.

Turning to `COc1ccc(C2S/C(=C\c3cc(OC)c(OC)c(OC)c3)C(=O)N2NC(=O)Cc2ccccc2)cc1` (stereo unspecified), the GI50 in the experiment on OVCAR-5, in the experiment on NCI-H226, in the experiment with OVCAR-4, in the experiment with 786-0, with SN12C and in the experiment on HOP-62 was > 100 µM (inactive) each time. Besides, the GI50 was 76.6 µM (inactive) in the experiment with UACC-257; > 100 µM (inactive) in the experiment with HL-60; > 100 µM (inactive) in the experiment with OVCAR-8; 22.1 µM (inactive) in the experiment with SK-MEL-5; > 100 µM (inactive) in the experiment on SF-539; > 100 µM (inactive) with SF-268. Moreover, the GI50 in the experiment with SK-MEL-2, in the experiment with RXF 393, with K562 and in the experiment on HOP-92 was > 100 µM (inactive) in each case.

On to `O=C(/C=C\c1ccccc1)N1CCc2ccccc2C1`, for which the GI50 in the experiment with NCI-H226 is > 100 µM (inactive); with OVCAR-4, 93.1 µM (inactive); in the experiment on 786-0 it was 87.5 µM (inactive); in the experiment on HOP-62, > 100 µM (inactive); in the experiment on UACC-257, 38.9 µM (inactive); in the experiment on HL-60, 29.8 µM (inactive). In addition, the GI50 is 60.7 µM (inactive) with Hs-578T; 51.9 µM (inactive) in the experiment on OVCAR-8; 17.1 µM (inactive) with SK-MEL-5; 49.8 µM (inactive) in the experiment on SF-539; 49.7 µM (inactive) in the experiment with SF-268; 31.3 µM (inactive) with SK-MEL-2. For the same compound, the GI50 was 44.4 µM (inactive) in the experiment with RXF 393, 19.4 µM (inactive) with K562 and 42.6 µM (inactive) in the experiment on HOP-92.

`COC(=O)c1cc(C)n(NC(=O)OC(C)(C)C)c1C`: the GI50 in the experiment with OVCAR-5, in the experiment on NCI-H226, in the experiment on 786-0, in the experiment on SN12C, in the experiment on HOP-62 and in the experiment on UACC-257 was > 100 µM (inactive) each time. Besides, the GI50 in the experiment on OVCAR-3, in the experiment on HL-60, in the experiment with OVCAR-8, in the experiment with SK-MEL-5, with SF-539 and in the experiment with SF-268 was > 100 µM (inactive) throughout. The GI50 in the experiment on SK-MEL-2, with RXF 393 and in the experiment on K562 was > 100 µM (inactive) throughout.

Take `CCCCCCCCCCCCCCCC[N+](C)(C)Cc1ccc(C[N+](C)(C)CCCCCCCCCCCCCCCC)cc1`: the GI50 in the experiment on OVCAR-5 was 1.91 µM (inactive); in the experiment with OVCAR-4, 3.23 µM (inactive); in the experiment with 786-0, 2.5 µM (inactive); in the experiment with SN12C it was 1.95 µM (inactive); in the experiment on HOP-62 it was 4.76 µM (inactive); in the experiment on UACC-257, 3.4 µM (inactive). For the same compound, the GI50 with OVCAR-3 is 2.54 µM (inactive); in the experiment on HL-60, 2.3 µM (inactive); in the experiment with OVCAR-8, 2.04 µM (inactive); with SK-MEL-5, 6.12 µM (inactive); with SF-539 it was 2.02 µM (inactive); with SF-268, 2.38 µM (inactive). Further, the GI50 is 2.04 µM (inactive) with SK-MEL-2, 0.923 µM (active) in the experiment on RXF 393 and 2.06 µM (inactive) in the experiment with K562.
